Test results as given in US11912647B2, “Diversity-oriented synthesis of N,N,O-trisubstituted hydroxylamines from alcohols and amines by N—O bond formation” (University of Georgia Research Foundation, Inc., priority 2020, dated 2024).

Experiments:
[1] = tested on: human hepatocarcinoma cell line HepG2; settings: cited from earlier work

| Compound | melting point | IC50 [1] | activity toward HepG2 relative to kalkitoxin ([1]; hydroxalog versus parent natural product) |
| --- | --- | --- | --- |
| CC(C)(C)ON1CCN(c2ccc(C(F)(F)F)cc2)CC1 | 77.6 to 78.8 °C | – | – |
| CC(C)(C)ON1CCN(c2cccc(Cl)c2Cl)CC1 | 92 to 93 °C | – | – |
| 10-aza-9-oxakalkitoxin | – | 2.4 ng/mL | complete retention of activity |
| kalkitoxin | – | 3.2 ng/mL | – |
